# Laboratory results: US7777049B2, “Crystalline forms of Rizatriptan benzoate” (ratiopharm GmbH, priority 2004, dated 2010)
# Assay: Suspension equilibration of a Form A / Form B mixture in ethyl acetate, product identified by X-ray powder diffraction
# Format: physicochemical
# Conditions: 7 mg Form A and 7 mg Form B suspended in 1 ml ethyl acetate, stirred 16 hours at 25° C.; Form A obtained by XRPD
# Experimental: 7 mg rizatriptan benzoate Form A and 7 mg Form B are suspended in 1 ml ethyl acetate, and stirred 16 hours at 25° C. After filtration, a white powder is obtained.
# X-ray powder diffraction measurements were performed on a Philips 1710 powder X-ray diffractometer using Cu Kα radiation (Cu Kα1=1.54060 Å). The X-ray source is operated at 45 kV and 45 mA. Spectra are recorded at a step size of 0.02° with a counting time of 2.4 seconds per step. The accuracy of the 2 theta values of conventionally recorded powder X-ray diffraction patterns is generally ±0.1-0.2°. For sample preparation, about 40 mg of substance was prepared into circular shaped quartz sample holders of 0.5 mm depth and 10 mm width.
row,Compound,relative thermodynamic stability of the crystalline form
1,"CN(C)CCc1c[nH]c2ccc(Cn3cncn3)cc12 [Form A, N,N-dimethyl-5-(1H-1,2,4-triazol-1-ylmethyl)-1H-indole-3-ethanamine benzoate]",thermodynamically most stable form
2,"CN(C)CCc1c[nH]c2ccc(Cn3cncn3)cc12 [Form B, N,N-dimethyl-5-(1H-1,2,4-triazol-1-ylmethyl)-1H-indole-3-ethanamine benzoate]",metastable form
